Each structure is given as a SMILES string. ≈ marks a conversion by molar mass, not a printed value. Calls of active or inactive are those of the source. No cut-off for these calls is given here.

Data set [1] relates to Mycobacterium tuberculosis. Description: Antitubercular activity against Mycobacterium tuberculosis H37Rv (ATCC 25618) incubated for […] by MABA assay. It counts as functional. In general terms: Alamar Blue is a resazurin reagent that responds to reducing activity.
Data set [2] is described as follows: Tmax in ICR mouse at 25 micromol/kg, po measured after 24 hrs by LC-MS/MS analysis. It is filed as ADME, organism-based. Conditions: in vivo, dose 25 µmol/kg.
Data set [3] in a line: Cmax in ICR mouse at 25 micromol/kg, po measured after 24 hrs by LC-MS/MS analysis. It is filed as ADME, organism-based. Conditions: in vivo, dose 25 µmol/kg.
Data set [4] is described as follows: AUC (0 to 24 hrs) in ICR mouse at 25 micromol/kg, po by LC-MS/MS analysis. It is filed as ADME, organism-based. Conditions: in vivo, dose 25 µmol/kg; for AUC: po.
Data set [5] in a line: Elimination half life in ICR mouse at 25 micromol/kg, po measured after 24 hrs by LC-MS/MS analysis. It is filed as ADME, organism-based. Conditions: in vivo, dose 25 µmol/kg, read-out: beta t1/2 (converted).
The nature of data set [6]: MRT in ICR mouse at 25 micromol/kg, po measured after 24 hrs by LC-MS/MS analysis. It is filed as ADME, organism-based. Conditions: in vivo, dose 25 µmol/kg.
Data set [7] in a line: Oral bioavailability in ICR mouse at 25 micromol/kg measured after 24 hrs by LC-MS/MS analysis. It counts as ADME, organism-based. Conditions: in vivo; for F: po, 24 h, at 25 µmol/kg.
A short description of data set [8]: AUC (0 to 8 hrs) in ICR mouse at 5 micromol/kg, iv by LC-MS/MS analysis. It counts as ADME, organism-based. Conditions: in vivo, dose 5 µmol/kg; for AUC: iv.
Data set [9] in a line: Drug concentration in ICR mouse plasma at 5 micromol/kg, iv measured after 5 mins by LC-MS/MS analysis. It counts as ADME, organism-based. Conditions: dose 5 µmol/kg.
Data set [10] is described as follows: Elimination half life in ICR mouse at 5 micromol/kg, iv measured after 24 hrs by LC-MS/MS analysis. It is filed as ADME, organism-based. Conditions: in vivo, dose 5 µmol/kg, read-out: beta t1/2 (converted).
Data set [11] is described as follows: MRT in ICR mouse at 5 micromol/kg, iv measured after 24 hrs by LC-MS/MS analysis. Conditions: in vivo, dose 5 µmol/kg. It counts as ADME, organism-based.
Data set [12] in a line: Volume of distribution at steady state in ICR mouse at 5 micromol/kg, iv measured after 24 hrs by LC-MS/MS analysis. It counts as ADME, organism-based. Conditions: in vivo, dose 5 µmol/kg, read-out: Vdss.
Data set [13] can be described thus: Total plasma clearance in ICR mouse at 5 micromol/kg, iv measured after 24 hrs by LC-MS/MS analysis. It is filed as ADME, organism-based. Conditions: dose 5 µmol/kg.
Data set [14] can be described thus: Protein binding in mouse plasma assessed as unbound fraction incubated for 24 hrs by equilibrium dialysis based LC/MS analysis. It is filed as ADME, cell-free. On the technique in general: Equilibrium dialysis compares concentrations on both sides of a semipermeable membrane.
A short description of data set [15]: Aqueous solubility of the compound in PBS buffer at pH 6.82 incubated for 4 hrs by HPLC analysis. It is filed as physicochemical.
The test system of data set [16] is HepG2. Description: Cytotoxicity against human HepG2 cells at 30 uM incubated for 48 hrs by CCK8 assay. It counts as toxicity, cell-based. Conditions: hepg2, 48 h. (In general: Formazan colour is commonly taken as a measure of viable cells.)
The subject of data set [17] is Mycobacterium tuberculosis. Description: Antitubercular activity against Mycobacterium tuberculosis H37Rv infected in BALB/c mouse assessed as log reduction in colony formation in lung at 50 mg/kg, po administered for 6 weeks. It is filed as functional.
The nature of data set [18]: Metabolic stability in NADPH-fortified human liver microsomes assessed as CYP450-mediated stability incubated for 120 mins by LC/MS analysis. It is filed as ADME, Microsome. Conditions: 2 h.
A short description of data set [19]: Metabolic stability in NADPH-fortified mouse liver microsomes assessed as CYP450-mediated stability incubated for 120 mins by LC/MS analysis. It counts as ADME, Microsome. Conditions: 2 h.
Data set [20] can be described thus: Cytotoxicity against mouse hepatic stellate cells at 30 uM incubated for 48 hrs by CCK8 assay. It counts as toxicity, cell-based. Conditions: hepatic stellate cell.
The target in data set [21] is T1, Decaprenylphosphoryl-beta-D-ribose oxidase (Mycobacterium tuberculosis (strain ATCC 25618 / H37Rv), UniProt P9WJF1).
T1 sequence (P9WJF1 whole entry): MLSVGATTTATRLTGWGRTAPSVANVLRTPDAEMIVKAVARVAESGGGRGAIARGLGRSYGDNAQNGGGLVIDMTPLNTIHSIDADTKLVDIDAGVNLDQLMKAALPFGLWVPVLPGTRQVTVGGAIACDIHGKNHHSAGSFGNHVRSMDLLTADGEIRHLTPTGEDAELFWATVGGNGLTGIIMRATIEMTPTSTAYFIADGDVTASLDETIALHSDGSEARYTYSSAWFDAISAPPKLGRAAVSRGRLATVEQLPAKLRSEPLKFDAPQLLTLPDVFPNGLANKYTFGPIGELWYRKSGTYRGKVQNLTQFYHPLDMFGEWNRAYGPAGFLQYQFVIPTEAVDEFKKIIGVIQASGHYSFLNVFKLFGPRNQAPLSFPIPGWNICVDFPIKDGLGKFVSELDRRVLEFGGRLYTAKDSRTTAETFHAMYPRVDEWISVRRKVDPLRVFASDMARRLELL
Description: Inhibition of recombinant Mycobacterium tuberculosis DprE1 expressed in Escherichia coli measured after 120 mins by Amplex Red/peroxidase coupled assay.

Data set [22] has as its target T2, Decaprenylphosphoryl-beta-D-ribose oxidase (Mycobacterium tuberculosis (strain ATCC 25618 / H37Rv)) (UniProt P9WJF1).
T2 sequence (whole entry): T1 sequence (P9WJF1 whole entry)
Description: Time-dependent covalent inhibition of recombinant Mycobacterium tuberculosis DprE1 expressed in Escherichia coli by Amplex Red/peroxidase coupled assay.

On to `CN(CC#Cc1cscn1)c1nc(=O)c2cc(C(F)(F)F)cc([N+](=O)[O-])c2s1`, for which, in data set [1], the MIC – broadly, the lowest concentration found to suppress growth – was determined as 28 nM (≈ 11.9 ng/mL). Moreover, in data set [2], the Tmax (usually the time from dosing to the highest level) stood at 1 h. Further, the concentration in [3] peaked (Cmax) at 2670 nM. The AUC (usually the area under the concentration-time curve, a measure of exposure) in data set [4] stood at 18.99661 µM·h; in data set [8] it was 4.66345 µM·h. Besides, the half-life in data set [5] is 4.77 h; in [10], 0.84 h. The values for the MRT in data set [6] and in data set [11] were 7.17 h and 1.05 h, respectively. This molecule also yielded a F in [7] of 37.13%. Also, the concentration at 5 min in [9] was 10300 nM. In addition, the Vd in data set [12] is 0.59 L/kg. Besides, the clearance (as a rule, a measure of how efficiently the substance is removed, as volume per time) in data set [13] was 8.5 mL/min/kg. Moreover, the Fu in data set [14] is recorded as 0.65%. Besides, the concentration in solution in data set [15] (solubility at 4 h) came to 12.8 µg/mL (≈ 30 µM). In addition, the Activity entry is given as “Non-Toxic” in data set [16], roughly 2 log10CFU in [17] and “Non-Toxic” in data set [20]. In addition, the Stability entry in [18] and in data set [19] was “Stable” each time.
Molecule `O=c1nc(N2CCN(CC3CCCCC3)CC2)sc2c([N+](=O)[O-])cc(C(F)(F)F)cc12` [MACOZINONE] showed an MIC in [1] of less than 0.4 nM. Also, the Tmax in data set [2] is 0.38 h. Besides, the highest level in data set [3] (Cmax) was 472 nM. The AUC was found to be 0.80339 µM·h in data set [4] and 1.18766 µM·h in data set [8]. The half-life in data set [5] was 1.48 h; in data set [10], 0.95 h. Moreover, the MRT (commonly a mean duration of stay, worked out from the concentration-time curve) in [6] came to 2.44 h; in data set [11] it was 1.42 h. The molecule further yielded a F in data set [7] of 0.65%. In data set [9], the concentration at 5 min stood at 1390 nM. For the same molecule, the Vd in data set [12] is 5.61 L/kg. In addition, the clearance in data set [13] was 65.5 mL/min/kg. Besides, the Fu in data set [14] is on record as 0.46%. For the same molecule, the solubility – broadly, how much of the substance goes into solution per volume – at 4 h in [15] amounted to 0.01 µg/mL (≈ 0.0219 µM).
The molecule `CN(CC#Cc1ccccc1)c1nc(=O)c2cc(C(F)(F)F)cc([N+](=O)[O-])c2s1` gave an MIC in data set [1] of 7 nM (≈ 2.94 ng/mL). Further, the Tmax in data set [2] came out at 0.9 h. Also, in data set [3], the Cmax (as a rule, the maximum level reached in the sampled fluid or tissue) came out at 1290 nM. Also, the AUC(0-t) (usually the area under the concentration-time curve up to a stated or last time point) in data set [4] (ICR) worked out at 5.16 µM·h; in data set [8] (ICR), 23.2 µM·h. Moreover, the half-life is 2.95 h in data set [5] and 1.77 h in data set [10]. For the same molecule, the figures for the MRT in [6] and in data set [11] were 4.35 h and 2.72 h, respectively. Further, the bioavailability – broadly, dose-corrected exposure relative to a reference, in per cent – in [7] (ICR, 25 µmol/kg) stood at 4.49%. The same molecule displayed a concentration at 5 min in data set [9] of 13500 nM. Besides, in data set [12], the Vd was found to be 0.25 L/kg. The same molecule had a clearance in [13] of 1.5 mL/min/kg. The Fu in data set [14] is listed as 0.25%. For the same molecule, in [21], the IC50 (in general, the point on the concentration scale where inhibition reaches its midpoint) was 23 nM. The same molecule showed a solubility at 4 h in data set [15] of 0.8 µg/mL (≈ 1.91 µM). Further, the results for the Activity result in [16], in [17] and in data set [20] were “Non-Toxic”, less than 1 log10CFU and “Non-Toxic”, respectively. Moreover, in data set [22], the TDI result was “Active”. The Stability result in [18] and in data set [19] was “Stable” throughout.
Regarding `CN(CC#CC1CCCCC1)c1nc(=O)c2cc(C(F)(F)F)cc([N+](=O)[O-])c2s1`, the MIC in data set [1] was determined as 2 nM (≈ 0.851 ng/mL). The IC50 in data set [21] came to 18 nM. Also, the TDI result in data set [22] is “Active”.

The record behind these values is ChEMBL document CHEMBL5528009, “Benzothiozinone derivatives with anti-tubercular Activity-Further side chain investigation” (Eur J Med Chem, 2024).
